Source: patent US9018244B2, “Benzopyran compounds, compositions and uses thereof” (Olema Pharmaceuticals, Inc., priority 2011, dated 2015)
Entries after “also recorded” stand apart in the source; their conditions may differ.

How the values were obtained:
[1] = test system: E2-stimulated AP activity in ECC-1 cells; experiment: Inhibition of E2-stimulated AP activity in ECC-1 cells (antagonist mode); format: cell-based, human; settings: in the presence of 500 pM E2
Excerpt: FIG. 2. Alkaline phosphatase (AP) activity in ECC-1 cells correlates with the uterine wet weight of ovariectomized rats, as reported previously in Scafonas, et al. (*; Scafonas et al. “Agonist-like SERM effects on ER alpha-mediated repression of MMPI promoter activity predict in vivo effects on bone and uterus. J Steroid Biochem Mol. Biol. 2008 110(3-5):197-206) and Labrie, et al. (†; Labrie et al. “The combination of a novel selective estrogen receptor modulator with an estrogen protects the mammary gland and uterus in a rodent model: the future of postmenopausal women's health?” Endocrinology. 2003 144(11):4700-6). ECC-1 cells were treated with 500 pM 17β-estradiol (E2) or 1-5 nM anti-estrogens in hormone-depleted medium for 3 days. Note that the racemic mixture of acolbifene, EM-343, was used in the in vitro AP assay. AP activity was measured by incubating a chromogenic AP substrate, p-nitrophenyl phosphate, at 40° C. for 40 minutes followed by measuring the absorbance at 405 nm. Results were from a single representative experiment and reported as the mean percent induction relative to E2 from triplicate treatments, with error bars representing SEM.
FIG. 6. […] A) Comparison of inhibition of E2-stimulated AP activity of various benzopyran compounds (right) compared to published reference compounds (left). ECC-1 cells were treated with 100 nM anti-estrogens in the presence of 500 pM E2 and AP activity was measured as described in FIG. 2. Note that OP-1038 was statistically different from EM-343 and Gauthier compound Ia (p<0.0001 (exact p values stated in graph), calculated using Student's t-test). Results were from a single representative experiment and reported as the mean percent induction relative to E2 from triplicate treatments, with error bars representing SEM. […] IC50's were calculated using the least squares fit method. *Aragon Compound 28 was statistically different from equivalent dose of OP-1038 (p≦0.01, calculated using Student's t-test). […]
Method for performing the alkaline phosphatase (AP) assay. […] Absorbance was read at 405 nm using a plate spectophotometer. […]

[2] = test system: E2-stimulated estrogen response element (ERE)-regulated reporter gene activity; experiment: ERE-tk109-Luc reporter gene assay in MCF-7 cells; format: cell-based, human; settings: 100 pM E2, 18-22 hours
Method: FIG. 10. […] A) OP-1074 had similar potency to model anti-estrogens in the ERE reporter gene assay. MCF-7 cells were transiently transfected with ERE-tk109-Luc and treated with anti-estrogens in hormone-depleted medium in the presence of 100 pM E2 for 22 hours. Results were from a single representative experiment and reported as the mean percent induction relative to E2 from triplicate treatments, with error bars representing SEM. […] Results were from a single representative experiment and reported as the mean percent induction relative to E2 from triplicate treatments, with error bars representing SEM. IC50's were calculated using the least squares fit method.
Compounds of invention are tested for their inhibitory activity of estrogen according to the assay methods described in Hodges-Gallagher, L., Valentine, C. V., El Bader, S. and Kushner, P. J. (2007) “Histone Deacetylase Inhibitors Enhance the Efficacy of Hormonal Therapy Agents on Breast Cancer Cells and Blocks Anti-estrogen-Driven Uterine Cell Proliferation” Breast Cancer Res Treat, November; 105(3):297-309. Specifically, an estrogen-responsive reporter gene (ERE-tk109-Luc) was transiently transfected into MCF-7 cells and treated with anti-estrogens in triplicate in the presence of 100 pM 17β-estradiol (E2) for 18-22 hours. Luciferase activity was normalized to activity of E2 alone and IC50's were calculated using the least squares fit method. This method is also described in legend for FIG. 10.

| SMILES | Inhibition of E2-stimulated AP activity [1] | Antagonism of E2-stimulated ERE-regulated reporter gene activity [2] |
| --- | --- | --- |
| CC1=C(c2ccc(O)cc2)C(c2ccc(OCCN3CC[C@@H](C)C3)cc2)Oc2cc(O)ccc21 (stereo partly drawn) [OP-1038, 3-(4-hydroxyphenyl)-4-methyl-2-(4-{2-[(3R)-3-methylpyrrolidin-1-yl]ethoxy}phenyl)-2H-chromen-7-ol] | more potent than Aragon Cpd. 28; also recorded: inhibit E2-stimulated AP activity; also recorded: more anti-estrogenic than EM-343 and EM-652 | improved potency; also recorded: potent antagonists |
| CC1=C(c2ccc(O)cc2)[C@H](c2ccc(OCCN3CC[C@@H](C)C3)cc2)Oc2cc(O)ccc21 [OP-1074, (2S)-3-(4-hydroxyphenyl)-4-methyl-2-(4-{2-[(3R)-3-methylpyrrolidin-1-yl]ethoxy}phenyl)-2H-chromen-7-ol] | inhibit E2-stimulated AP activity; also recorded: more anti-estrogenic than EM-343 and EM-652; also recorded: inhibited E2-stimulated AP activity in a dose dependent manner | improved potency; also recorded: potent antagonists |
